From patent US20180354909A1, “SUBSTITUTED BENZIMIDAZOLIUM, PYRIDO-IMIDAZOLIUM, OR PYRAZINO-IMIDAZOLIUM COMPOUNDS AS CHEMOTHERAPEUTICS” (The Board of Regents of the University of Texas System, priority 2015, published 2018)

Test system: MEF
Assay: OCR and ECAR measurement (Seahorse) in MEF
Assay type: cell-based, mouse
Experimental: Oxygen consumption rate (OCR) and extracellular acidification rate (ECAR) were measured by Seahorse Bioscience instrument (XF24) with 80-90% confluent cells, according to the manufacturer's protocol. Briefly, cells were equilibrated for 1 hr at 37° C. incubator lacking CO2. Oxygen concentration and pH in media were measured during sequential treatment with 12M11, Oligomycin (1 μM), FCCP (1 μM), and Rotenone (200 nM). A minimum of three wells were utilized per condition to calculate OCR and ECAR.

CCc1n(CC(=O)O[C@@H]2C[C@H](C)CC[C@H]2C(C)C)c2ccccc2[n+]1C.[Cl-] [Compound 12M11]
extracellular acidification: do not increase acidification significantly
oxygen consumption rate (OCR): decrease
